Holding throughout (type): cell-based
The subject of assay [1] is Staphylococcus hominis DSM 20328. Put plainly: Agar incorporation test, MIC. As to conditions: DSM20328; Table 1; Staphylococcus hominis DSM 20328; agar incorporation; read-out: Minimum Inhibitory Concentration, SH.
Assay [2] concerns Aspergillus niger ATCC 6275. Put plainly: Agar incorporation test, MIC. As to conditions: ATCC6275. The source says:
(§1) Medium: • Nutrient agar as test agar for bacteria: • Mueller hinton agar to cultivate the aerobic bacteria • Mueller hinton bouillon for obtaining the suspension of microorganisms • Ethanol as solvent • Wilkins-Chalgren agar to cultivate the […] bacteria • Sabouraud glucose agar to cultivate the dermatophytes
(§2) Examples of Test bacteria • Staphylococcus aureusATCC 6538 • Staphylococcus hominis DSM 20330 • Escherichia coli NCTC 8196 • Pseudomonas aeruginosa CIP A-22 • Candida albicans ATCC 10231 • Aspergillus niger ATCC 6275
(§3) Procedure: The test substances are dissolved in ethanol, and a dilution series of the compound of the formula (102) in agar are prepared. • Anaerobic bacteria and dermatophytes are activated on agar-plates, and washes off with Mueller-Hinton bouillon. Aerobic bacteria are activated in Mueller-Hinton bouillon overnight. The test germ suspension are diluted with Mueller-Hinton bouillon to a density of McFarland standard 0.5. • 10 μl of each germ suspension is dropped onto the agar plates containing the test substance, and the plates are then incubated at 37° C. for 2 days. (Aerobic bacteria are incubated at 36° C. for 72 hours, anaerobic bacteria are incubated at 30° C. for 72 hours). As controls, the bacterial suspensions are applied to agar plates without test substances.

Assay [3] relates to Candida albicans ATCC 10231. As to the kind of experiment: Agar incorporation test, MIC. Conditions: ATCC10231.
From the text: as §1, §2, §3

Assay [4] has as its system Escherichia coli NCTC 8196. As to the kind of experiment: Agar incorporation test, MIC. As to conditions: NCTC8196.
From the text: as §1, §2, §3

Assay [5] relates to Pseudomonas aeruginosa CIP A-22. As to the kind of experiment: Agar incorporation test, MIC. Conditions: CIPA22.
From the text: as §1, §2, §3

In assay [6] the test system is Staphylococcus aureus ATCC 6538. As to the kind of experiment: Agar incorporation test, MIC. Conditions: ATCC6538.
From the text: as §1, §2, §3

In assay [7] the test system is Actinomyces viscosum DSM 43329. As to the kind of experiment: Microbiological data (MIC). As to conditions: Actinomyces, DSM43329; Table 4. As to the method:
as §1, §3
(§4) Microbiological data of the above compounds (MIC in ppm): […]

Assay [8] concerns Corynebacterium minutissimum ATCC 23348. As to the kind of experiment: Microbiological data (MIC). Conditions: Corynebacterium minutissimum, ATCC23348; Table 4. The method, then:
as §1, §3, §4

Assay [9] has as its system Corynebacterium xerosis ATCC 373/ATCC 7711. As to the kind of experiment: Microbiological data (MIC). Conditions: Corynebacterium xerosis; Table 4. As to the method: as §1, §3, §4
Assay [10] deals with Epidermophyton floccosum CBS 55384. As to the kind of experiment: Microbiological data (MIC). Conditions: Epidermophyton floccosum, CBS55384; Table 4. As to the method: as §1, §3, §4
Assay [11] concerns Malassezia furfur DSM 6171. Put plainly: Microbiological data (MIC). Conditions: DSM6171, Table 4. As to the method: as §1, §3, §4
Assay [12] has as its system Porphyromonas gingivalis DSM 20709. Put plainly: Microbiological data (MIC). Conditions: Porphyromonas gingivalis, DSM20709; Table 4. The method, then: as §1, §3, §4
For assay [13], the system named is Propionibacterium acnes ATCC 11829. Put plainly: Microbiological data (MIC). As to conditions: Cutibacterium acnes, ATCC11829; Table 4. As to the method:
as §1, §3, §4

The subject of assay [14] is Proteus vulgaris ATCC 6896. As to the kind of experiment: Microbiological data (MIC). As to conditions: Proteus vulgaris, ATCC6896; Table 4. The method, then:
as §1, §3, §4

The subject of assay [15] is Selenomonas artemidis ATCC 43528. Put plainly: Microbiological data (MIC). Conditions: Centipeda artemidis, ATCC43528; Table 4. As to the method:
as §1, §3, §4

Assay [16] has as its system Staphylococcus epidermidis ATCC 12228. As to the kind of experiment: Microbiological data (MIC). Conditions: Staphylococcus epidermidis, ATCC12228; Table 4. As to the method: as §1, §3, §4
In assay [17] the test system is Streptococcus sobrinus DSM 20742. As to the kind of experiment: Microbiological data (MIC). Conditions: Streptococcus sobrinus, DSM20742; Table 4. As to the method:
as §1, §3, §4

The subject of assay [18] is Trichophyton mentagrophytes ATCC 9553. Put plainly: Microbiological data (MIC). As to conditions: Trichophyton mentagrophytes, ATCC9553; Table 4. As to the method:
as §1, §3, §4

In assay [19] the test system is Trichophyton rubrum DSM 4167. Put plainly: Microbiological data (MIC). Conditions: Trichophyton rubrum, DSM4167; Table 4. As to the method:
as §1, §3, §4

[20] abbreviates: Table 1, Aspergillus niger ATCC 6275, agar incorporation, read-out: Minimum Inhibitory Concentration, AN.
Setting [21] is: Table 1, Candida albicans ATCC 10231, agar incorporation, read-out: Minimum Inhibitory Concentration, CA.
The mark [22] stands for this setting: Table 1, Escherichia coli NCTC 8196, agar incorporation, read-out: Minimum Inhibitory Concentration, EC.
Where [23] appears, read: Table 1, Pseudomonas aeruginosa CIP A-22, agar incorporation, read-out: Minimum Inhibitory Concentration, PA.
Setting [24] is: Table 1, Staphylococcus aureus ATCC 6538, agar incorporation, read-out: Minimum Inhibitory Concentration, SA.

SMILES strings stand for the structures. ≈ marks a conversion by molar mass, not a printed value. Like-named read-outs stand apart in the source and are kept apart here.

With `Cc1ccccc1Oc1ccccc1O` [(113)], the MIC came out at 30 µg/mL (≈ 150 µM) in [1], 60 µg/mL (≈ 300 µM) in assay [2] (setting [20]), 120 µg/mL (≈ 599 µM) in assay [3] (setting [21]) and 30 µg/mL (≈ 150 µM) in assay [4] (setting [22]).

In the case of `Cc1ccc(C)c(Oc2ccc(O)cc2)c1` [(129)], the MIC in assay [3] (setting [21]) is 25 µg/mL (≈ 117 µM); in assay [5] (setting [23]) it was 25 µg/mL (≈ 117 µM); in assay [6] (setting [24]), 50 µg/mL (≈ 233 µM).

In the case of `CC(C)CCc1ccc(Oc2ccc(O)cc2)cc1` [(120)], in assay [1], the MIC stood at 4 µg/mL (≈ 15.6 µM).

For `Oc1ccc(Oc2ccccc2)cc1` [(127)], the MIC in assay [3] (setting [21]) was 50 µg/mL (≈ 269 µM); in assay [4] (setting [22]) it was 100 µg/mL (≈ 537 µM); in assay [5] (setting [23]), 50 µg/mL (≈ 269 µM); in assay [6] (setting [24]), 500 µg/mL (≈ 2690 µM).

As for `CCCc1ccc(Oc2ccccc2)cc1O` [(105)], the MIC in assay [1], in assay [2] (setting [20]), in assay [3] (setting [21]) and in assay [4] (setting [22]) was 30 µg/mL (≈ 131 µM) in each case.

On to `Cc1ccc(C(C)(C)C)c(Oc2ccc(O)cc2)c1` [R1 = t-Butyl R2 = Me, 4-(2-t-Butyl-5-methylphenoxy)phenol], for which the MIC in assay [2] (Aspergillus niger, Table 4, read-out: MIC, Aspergillus niger ATCC 6275) is 6.75 µg/mL (≈ 26.3 µM); in assay [3] (Candida albicans, Table 4, read-out: MIC, Candida albicans ATCC 10231), 12.5 µg/mL (≈ 48.8 µM); in assay [4] (Escherichia coli, Table 4, read-out: MIC, Escherichia coli NCTC 8196), > 100 µg/mL; in assay [5] (Pseudomonas aeruginosa, Table 4, read-out: MIC, Pseudomonas aeruginosa CIP A-22), > 100 µg/mL; in assay [6] (Staphylococcus aureus, Table 4, read-out: MIC, Staphylococcus aureus ATCC 6538), 6.75 µg/mL (≈ 26.3 µM); in assay [7] it was 5 µg/mL (≈ 19.5 µM). In addition, the MIC is 3.4 µg/mL (≈ 13.3 µM) in assay [8]; 3.4 µg/mL (≈ 13.3 µM) in assay [9]; 1.65 µg/mL (≈ 6.44 µM) in [10]; 2.5 µg/mL (≈ 9.75 µM) in assay [11]; 1.25 µg/mL (≈ 4.88 µM) in assay [12]; 5 µg/mL (≈ 19.5 µM) in assay [13]. The MIC was > 100 µg/mL in assay [14]; 5 µg/mL (≈ 19.5 µM) in assay [15]; 3.4 µg/mL (≈ 13.3 µM) in assay [16]; 5 µg/mL (≈ 19.5 µM) in [17]; 3.4 µg/mL (≈ 13.3 µM) in [18]; 10 µg/mL (≈ 39 µM) in assay [19].

Turning to `CCCCc1ccc(Oc2ccccc2)cc1O` [(104)], the MIC in [1] came out at 30 µg/mL (≈ 124 µM); in assay [2] (setting [20]), 60 µg/mL (≈ 248 µM); in [3] (setting [21]), 30 µg/mL (≈ 124 µM); in assay [4] (setting [22]) it was 30 µg/mL (≈ 124 µM).

As to `Oc1ccc(Oc2ccc(CCc3ccccc3)cc2)cc1` [(123)], the MIC in assay [1] stood at 8 µg/mL (≈ 27.6 µM).

As to `CCC(C)c1ccccc1Oc1cccc(O)c1` (centres unmarked) [(116)], the MIC in assay [1], in [2] (setting [20]) and in assay [3] (setting [21]) was 30 µg/mL (≈ 124 µM) each time.

Turning to `Cc1ccc(C(C)C)c(Oc2ccc(O)cc2)c1` [(118)], the MIC in assay [1] turned out to be 3 µg/mL (≈ 12.4 µM); in [3] (setting [21]), 50 µg/mL (≈ 206 µM); in [4] (setting [22]), 50 µg/mL (≈ 206 µM); in [6] (setting [24]), 5 µg/mL (≈ 20.6 µM).

For `Oc1ccc(Oc2ccccc2O)cc1` [(117)], the MIC in assay [4] (setting [22]) came out at 60 µg/mL (≈ 297 µM).

For `Oc1ccccc1Oc1ccccc1` [(107)], the results for the MIC in [1], in [2] (setting [20]) and in assay [4] (setting [22]) were 30 µg/mL (≈ 161 µM), 120 µg/mL (≈ 644 µM) and 30 µg/mL (≈ 161 µM), respectively.

As for `CCCCCc1ccc(Oc2ccccc2)cc1O` [(106)], the MIC in assay [1] was 30 µg/mL (≈ 117 µM); in [2] (setting [20]), 60 µg/mL (≈ 234 µM); in [3] (setting [21]), 60 µg/mL (≈ 234 µM); in assay [4] (setting [22]), 30 µg/mL (≈ 117 µM).

In the case of `CC(C)(C)c1ccccc1Oc1ccccc1O` [(114)], the MIC in assay [1] worked out at 30 µg/mL (≈ 124 µM); in assay [2] (setting [20]), 120 µg/mL (≈ 495 µM); in assay [3] (setting [21]), 60 µg/mL (≈ 248 µM); in [4] (setting [22]), 30 µg/mL (≈ 124 µM).

In the case of `Oc1ccc(Oc2ccc(C(F)(F)F)cc2)cc1` [(128)], the MIC in [3] (setting [21]), in assay [4] (setting [22]), in [5] (setting [23]) and in [6] (setting [24]) was 50 µg/mL (≈ 197 µM) in each case.

The values above are taken from patent US7105577B2, “Antimicrobial method using a hydroxydiphenyl ether compound” (Ciba Specialty Chemicals Corporation, priority 1999, dated 2006).
